# Where two headings read alike, the source gives them in different places.
# How the values were obtained:
# [1] = tested on: SH-SY5Y neuroblastoma cell line; assay: In-vitro cytotoxicity, Alamar Blue cell viability; format: cell-based; details: 72 h
# Source text: (§1) SK-N-BE(2) (MYCN amplified) and SH-SY5Y (non-MYCN amplified neuroblastoma cell lines) were obtained from American Type Culture Collection (ATCC) (Manassas, Va.); BE(2)-c sub-clone of SK-N-BE(2) was obtained from Dr. Michelle Haber (Children's Cancer Institute for Medical Research, Lowry Cancer Research Centre, Randwick, Australia); Human Umbilical Vein Endothelial Cells (HUVECs) were obtained from Dr. Herman Yeger (The Hospital for Sick Children, Toronto, Ontario, Canada) and Tumor Initiating (TIC) cell lines NB12 and NB88, were obtained from Dr. David Kaplan (The Hospital for Sick Children, Toronto, Ontario, Canada). TICs NB12 and NB88 were isolated from the bone marrow metastases of relapsed high-risk neuroblastoma patients. Neuroblastoma cell lines SK-N-BE(2) and SH-SY5Y were grown in alpha-MEM containing 10% fetal bovine serum and 1% antibiotic mixture in humidified atmosphere at 37° C. with 5% CO2. NB12 and NB 88 were cultured as described previously.
# (§2) Cell viability was determined by Alamar Blue assay. Alamar blue (10% of total volume was added to each well three hours prior to fluorometric detection). Fluorometric detection was performed using the SPECTRAmax gemini Spectrophotometer at excitation wavelength of 540 nm and emission wavelength of 590 nm.
# [2] = tested on: SK-N-BE(2) neuroblastoma cell line; assay: In-vitro cytotoxicity, Alamar Blue cell viability; format: cell-based; details: for IC50: Homo sapiens, SKNBE2, 72 h
# Source text: as §1, §2
# [3] = tested on: SK-N-BE(2) xenograft; assay: SK-N-BE(2) neuroblastoma xenograft model; format: in vivo, NOD/SCID mice; details: for survival compared to control: daily oral gavage 56 days, TP 1.0 mg/Kg topotecan, PZ 150 mg/Kg pazopanib, TP+PZ both
# Protocol: (§3) 1×10^6 SK-N-BE(2) cells or 30,000 NB12 cells were implanted subcutaneously into the inguinal fat pad of each of non-obese diabetic/severe combined immune deficient (NOD/SCID) mice. […] The criteria for end point were tumor sizes exceeding 2.0 cms in diameter or animals showing signs of morbidity. The tumor sizes were measured on a daily basis until the end point or sacrifice. The long (D) and short diameters (d) were measured with calipers. Tumor volume (cm^3) was calculated as V=0.5×D×d^2. When end point was reached, the animals were sacrificed by cervical dislocation. Tumors were excised and were fixed in 10% formalin solution.
# In the group of animals implanted with SK-N-BE(2) cells palpable tumors started appearing approximately two weeks after cell implantation and took an additional week to reach 0.5 cm in diameter, after which the treatment was started. The effect of treatment was assessed by measuring regression of tumors and by survival times. Drugs were administered daily over a period of 56 days, and the animals belonging to the TP+PZ group were also retreated from the 103rd day to evaluate the impact of resuming treatment on reversing drug resistance. Retreatment was continued until the 125th day, after which the mice were sacrificed.
# [4] = tested on: NB12 xenograft; assay: NB12 TIC xenograft model; format: in vivo, NOD/SCID mice; details: for tumor growth compared to control: daily oral gavage, TP 1.0 mg/Kg, PZ 150 mg/Kg, TP+PZ both
# Protocol: as §3
# [5] = Pharmacokinetics of topotecan and pazopanib in non-tumor bearing animals; format: in vivo, mice
# Protocol: Non-tumor bearing animals were randomized into four groups (n=3): Control, PZ, TP and TP+PZ. The doses of the drugs were the same as for the inguinal xenograft and metastatic models described above.
# After single drug administration, the saphenous vein blood samples (30 μl) were collected in heparinized microcentrifuge tubes at 30 min, 1 h, 2 h, 4 h, 8 h, 12 h, 18 h and 24 h as per the Lab Animal Services protocol. Plasma was immediately isolated after blood collection by centrifugation. For the topotecan assay, 10 μl plasma was immediately precipitated with 20 μl methanol and centrifuged. The supernatant and rest of the plasma were stored at […] until analysis.
# 30 μl of supernatant was injected into the HPLC system, which consisted of Phenomenox C18 (Luna; 150×4.6 mm; particle size 5 microns) column, UV detector (267 nm). The mobile phase was 50:50 mixture of 10 mM potassium phosphate and methanol, with flow rate 1.0 ml/min. The calibration standards were 5, 10, 50, 100 and 200 μg/ml.
# Assay of topotecan: Prior to analysis, the previously prepared 20 μl methanolic extract was mixed with 50 μl of internal standard solution (5 ng/ml d6 topotecan dissolved 1% formic acid in acetonitrile). The mixture was then centrifuged and the supernatant was transferred to auto-sampler vials.
# The LC/MS system consisted of an HPLC (Agilent Infinity 1290), Column (Kinetex HILIC, 2.6u, 100A, 50×4.6 mm) and a mass spectrometer (Sciex 5500-QTrap). The analytes were eluted by gradient flow. Mobile phase A was water:actonitrile (10:90) and mobile phase B was 10 mM ammonium acetate (pH 3.2). The mobile phase ratio was 5% A for 0-2 min, 20% A for 4-6 min and 5% A for 8-10 min at a flow rate 0.5 ml/min. The samples were analyzed by positive ion electrospray ionization technique in multiple reaction monitoring modes. The following mass transitions were monitored: 422.2 to 377 m/z, (topotecan M+H) and 428.2 to 377 m/z (topotecan d6 M+H). The calibration standard range was 0.5 ng/ml to 10 ng/ml.
# [6] = tested on: KHOS osteosarcoma cell line; format: cell-based
# Protocol: (§4) Materials: The cells were cultured at 37° C. in 5% CO2 in a-MEM (Multicell; Wisent, Inc., St. Bruno, Quebec, Canada) with 10% fetal bovine serum (FBS; Life Technologies, Grand Island, N.Y.) and 1% antibiotic mixture, containing 10000 IU penicillin and 10000 μg/ml streptomycin (Multicell; Wisent, Inc., St. Bruno, Quebec, Canada). Trypsin-EDTA, containing 0.05% trypsin and 0.53 mM EDTA was also purchased from Multicell; Wisent, Inc., St. Bruno, Quebec, Canada.
# (§5) Procedure: A total of 20,000 cells were plated in each well of 48 well-plates and incubated at 37° C. in 5% CO2. After 48 h, the cells were treated with various concentrations of drugs. After 72 h of treatment, the cell viability was determined by alamar blue assay.
# [7] = tested on: RD rhabdomyosarcoma cell line; format: cell-based
# Protocol: as §4, §5
# [8] = tested on: Rh30 rhabdomyosarcoma cell line; format: cell-based
# Protocol: as §4, §5
# [9] = tested on: Rh30 xenograft; assay: RH30 rhabdomyosarcoma mouse xenograft model; details: for tumor growth rate: daily oral up to 56 days, pazopanib 150 mg/Kg, LDM topotecan 1.0 mg/kg, combination both
smiles,measurement,setting,value
"Cc1ccc(Nc2nccc(N(C)c3ccc4c(C)n(C)nc4c3)n2)cc1S(N)(=O)=O [pazopanib, 5-[[4-[(2,3-dimethyl-2H-indazol-6-yl)methylamino]-2-pyrimidinyl]amino]-2-methylbenzenesulfonamide]",viability of SH-SY5Y,[1]; up to 5000 ng/ml,did not affect the viabilities
same,viability of SK-N-BE(2),"[2]; up to 5000 ng/ml, 72 h",did not affect the viabilities
same,survival compared to control,[3],significantly enhanced survival
same,tumor growth compared to control,[4],No significant difference
same,time optimal plasma concentration of pazopanib was maintained,[5]; PZ group,at least 18 h
same,time to peak plasma concentration of pazopanib,"[5]; PZ group, single oral 150 mg/Kg pazopanib",2 h
same,time optimal plasma concentration of pazopanib was maintained,[5]; TP+PZ group,at least 18 h
same,time to peak plasma concentration of pazopanib,"[5]; TP+PZ group, single oral 150 mg/Kg pazopanib+1.0 mg/Kg topotecan",2 h
same,cell viability / cytotoxicity,[6],did not show cytotoxicity
same,cell viability / cytotoxicity,[7],did not show cytotoxicity
same,cell viability / cytotoxicity,[8],did not show cytotoxicity
same,tumor growth rate,[9],delayed the tumor growth rate
CC[C@@]1(O)C(=O)OCc2c1cc1n(c2=O)Cc2cc3c(CN(C)C)c(O)ccc3nc2-1 [topotecan],IC50,"[1]; Homo sapiens, SH-SY5Y, topotecan alone",0.0053 µg/mL
same,IC50,[2]; topotecan alone,0.065 µg/mL
same,IC50,"[2]; topotecan with addition of 5000 ng/ml pazopanib, P=0.046",0.0351 µg/mL
same,"tumor growth rate, TP versus PZ group","[3]; TP 1.0 mg/Kg vs PZ 150 mg/Kg, daily oral",No significant difference
same,survival compared to control,[3],significantly enhanced survival
same,survival compared to control and PZ groups,"[4]; daily oral gavage until day 83, P<0.005",significantly enhanced
same,tumor growth compared to control,[4],significantly reduced
same,trough concentration of topotecan,[5]; TP group,0.77 ng/mL
same,peak plasma concentration of topotecan,"[5]; TP group, single oral 1.0 mg/Kg topotecan",19.75 ng/mL
same,peak plasma concentration of topotecan,[5]; TP+PZ group,33.05 ng/mL
same,trough concentration of topotecan,[5]; TP+PZ group,2.79 ng/mL
same,cell viability / cytotoxicity,[6]; 72 h treatment,dose-dependent reduction
same,cell viability / cytotoxicity,[7]; 72 h treatment,dose-dependent reduction
same,cell viability / cytotoxicity,[8]; 72 h treatment,dose-dependent reduction
same,"efficacy relative to PZ, TP+PZ and intermittent dosing",[9]; LDM topotecan 1.0 mg/kg daily oral,less effective
same,tumor growth rate,[9],delayed the tumor growth rate

# Reference: patent US8709420B2 (GlaxoSmithKline Intellectual Property Limited, priority 2010, dated 2014)
